Assay results: ChEMBL document CHEMBL5029145, “Discovery of AZD8154, a Dual PI3Kγδ Inhibitor for the Treatment of Asthma” (J Med Chem, 2021)
Values after ≈ are worked out from the molar mass of the structure shown.

Key:
[1] = Permeability in human Caco2 cells; format: ADME, cell-based; settings: caco-2
[2] = Volume of distribution at steady state in rat at 0.5 mg/kg, iv; format: ADME, organism-based; settings: in vivo, read-out: Vdss
[3] = Half life in rat plasma at 0.5 mg/kg, iv; format: ADME, organism-based
[4] = Clearance in rat at 0.5 mg/kg, iv; format: ADME, organism-based; settings: in vivo
[5] = Solubility of compound in at pH 7.4 at 1 mg/ml using crystalline form of sample incubated for 24 hrs by HPLC MS analysis; format: physicochemical
[6] = target: T1, Phosphatidylinositol 4,5-bisphosphate 3-kinase catalytic subunit delta isoform (Homo sapiens, UniProt O00329); test: Inhibition of PI3Kdelta in anti-IgM-stimulated human JeKo-1 cells assessed as inhibition of AKT phosphorylation at Ser473 residue incubated for 60 mins by TR-FRET assay
T1 sequence (O00329 whole entry): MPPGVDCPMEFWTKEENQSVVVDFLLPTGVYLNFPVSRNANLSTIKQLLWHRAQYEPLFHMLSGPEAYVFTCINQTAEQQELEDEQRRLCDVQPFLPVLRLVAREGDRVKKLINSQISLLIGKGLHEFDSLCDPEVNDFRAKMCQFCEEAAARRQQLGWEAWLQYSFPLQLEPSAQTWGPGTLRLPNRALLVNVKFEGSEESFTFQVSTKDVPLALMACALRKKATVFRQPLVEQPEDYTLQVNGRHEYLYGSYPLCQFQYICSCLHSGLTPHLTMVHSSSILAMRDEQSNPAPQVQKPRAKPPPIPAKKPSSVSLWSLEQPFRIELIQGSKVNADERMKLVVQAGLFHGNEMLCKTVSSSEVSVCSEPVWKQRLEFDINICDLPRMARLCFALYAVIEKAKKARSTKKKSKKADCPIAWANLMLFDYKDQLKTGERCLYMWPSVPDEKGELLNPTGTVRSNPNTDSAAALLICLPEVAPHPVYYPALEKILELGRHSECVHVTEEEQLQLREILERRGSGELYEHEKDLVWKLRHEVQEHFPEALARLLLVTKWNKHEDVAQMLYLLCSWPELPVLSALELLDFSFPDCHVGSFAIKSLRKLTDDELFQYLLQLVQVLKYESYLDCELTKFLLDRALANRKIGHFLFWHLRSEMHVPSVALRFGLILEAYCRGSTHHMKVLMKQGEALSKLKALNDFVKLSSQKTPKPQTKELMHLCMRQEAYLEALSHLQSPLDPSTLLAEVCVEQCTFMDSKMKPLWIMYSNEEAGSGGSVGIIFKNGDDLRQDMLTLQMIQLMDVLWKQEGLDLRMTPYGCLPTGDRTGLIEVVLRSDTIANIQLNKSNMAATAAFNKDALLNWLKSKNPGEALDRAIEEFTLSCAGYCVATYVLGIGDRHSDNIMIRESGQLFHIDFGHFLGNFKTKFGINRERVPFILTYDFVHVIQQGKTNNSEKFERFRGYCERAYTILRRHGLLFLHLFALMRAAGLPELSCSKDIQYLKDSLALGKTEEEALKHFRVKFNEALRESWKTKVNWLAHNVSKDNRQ

[7] = Distribution coefficient, logD of compound at pH 7.4; format: physicochemical; settings: octanol/water
[8] = target: Phosphatidylinositol 4,5-bisphosphate 3-kinase catalytic subunit alpha isoform (Homo sapiens, UniProt P42336); test: Inhibition of recombinant human PI3Kalpha assessed as reduction in ADP production using Dic8-PIP2 as substrate pre-treated for 15 mins followed by substrate addition measured after 60 mins by ADP-glo assay
Sequence of Phosphatidylinositol 4,5-bisphosphate 3-kinase catalytic subunit alpha isoform (P42336 whole entry, canonical isoform): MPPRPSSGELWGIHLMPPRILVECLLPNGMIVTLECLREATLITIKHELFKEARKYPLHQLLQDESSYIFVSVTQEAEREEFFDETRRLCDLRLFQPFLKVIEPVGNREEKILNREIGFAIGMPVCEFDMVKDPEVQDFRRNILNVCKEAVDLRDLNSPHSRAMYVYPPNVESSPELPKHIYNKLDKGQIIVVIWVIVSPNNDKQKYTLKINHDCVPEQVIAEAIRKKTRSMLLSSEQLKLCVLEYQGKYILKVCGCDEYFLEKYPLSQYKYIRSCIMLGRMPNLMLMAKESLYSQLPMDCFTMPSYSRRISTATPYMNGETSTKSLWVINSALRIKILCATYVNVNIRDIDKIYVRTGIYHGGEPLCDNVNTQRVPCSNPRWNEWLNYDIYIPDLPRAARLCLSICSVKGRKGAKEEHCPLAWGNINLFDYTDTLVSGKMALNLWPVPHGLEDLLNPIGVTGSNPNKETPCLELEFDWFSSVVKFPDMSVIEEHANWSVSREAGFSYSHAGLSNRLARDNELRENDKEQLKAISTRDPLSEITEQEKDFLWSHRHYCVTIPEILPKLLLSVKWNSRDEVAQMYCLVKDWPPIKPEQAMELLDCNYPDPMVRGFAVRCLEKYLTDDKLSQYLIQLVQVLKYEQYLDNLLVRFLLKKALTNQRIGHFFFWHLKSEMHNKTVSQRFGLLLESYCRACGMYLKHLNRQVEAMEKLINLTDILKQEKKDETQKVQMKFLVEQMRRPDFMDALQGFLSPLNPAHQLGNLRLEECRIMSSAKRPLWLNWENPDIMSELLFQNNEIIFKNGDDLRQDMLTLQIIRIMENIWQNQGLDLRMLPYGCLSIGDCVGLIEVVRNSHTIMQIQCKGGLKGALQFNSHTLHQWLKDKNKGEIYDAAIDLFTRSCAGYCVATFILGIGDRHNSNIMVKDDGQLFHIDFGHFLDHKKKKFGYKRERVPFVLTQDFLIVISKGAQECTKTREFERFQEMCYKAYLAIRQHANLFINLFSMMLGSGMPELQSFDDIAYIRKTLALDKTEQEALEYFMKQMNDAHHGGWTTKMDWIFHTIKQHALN

[9] = target: Phosphatidylinositol 4-kinase beta (Homo sapiens, UniProt Q9UBF8); test: Inhibition of PI4KB (unknown origin) assessed as reduction in substrate phosphorylation by FRET Adapta assay
Sequence of Phosphatidylinositol 4-kinase beta (Q9UBF8 whole entry): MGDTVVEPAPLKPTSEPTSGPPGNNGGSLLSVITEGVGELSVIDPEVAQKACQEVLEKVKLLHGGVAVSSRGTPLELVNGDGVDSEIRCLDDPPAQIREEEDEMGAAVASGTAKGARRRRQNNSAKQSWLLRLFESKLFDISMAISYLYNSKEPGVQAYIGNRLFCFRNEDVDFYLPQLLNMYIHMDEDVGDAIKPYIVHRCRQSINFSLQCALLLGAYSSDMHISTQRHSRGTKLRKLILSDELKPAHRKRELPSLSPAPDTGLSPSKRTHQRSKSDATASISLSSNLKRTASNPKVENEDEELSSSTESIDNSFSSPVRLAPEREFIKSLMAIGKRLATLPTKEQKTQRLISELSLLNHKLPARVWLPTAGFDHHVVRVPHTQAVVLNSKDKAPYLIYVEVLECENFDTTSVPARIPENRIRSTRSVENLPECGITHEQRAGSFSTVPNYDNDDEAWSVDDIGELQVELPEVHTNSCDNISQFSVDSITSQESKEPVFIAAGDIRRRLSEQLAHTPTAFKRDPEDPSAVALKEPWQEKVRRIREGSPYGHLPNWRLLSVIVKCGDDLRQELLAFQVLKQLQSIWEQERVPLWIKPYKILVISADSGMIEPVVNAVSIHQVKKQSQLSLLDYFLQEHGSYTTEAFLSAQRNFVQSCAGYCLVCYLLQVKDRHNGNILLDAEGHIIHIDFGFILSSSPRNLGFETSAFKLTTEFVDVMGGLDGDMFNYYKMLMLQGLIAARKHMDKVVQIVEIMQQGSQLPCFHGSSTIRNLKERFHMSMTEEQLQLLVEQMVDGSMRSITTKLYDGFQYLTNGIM

[10] = target: Phosphatidylinositol 3-kinase catalytic subunit type 3 (Homo sapiens, UniProt Q8NEB9); test: Inhibition of PIK3C3 (unknown origin) assessed as reduction in substrate phosphorylation by FRET Adapta assay
[11] = target: Phosphatidylinositol 4-phosphate 3-kinase C2 domain-containing subunit beta (Homo sapiens, UniProt O00750); test: Inhibition of PIK3C2B (unknown origin) assessed as reduction in substrate phosphorylation by FRET Adapta assay
[12] = target: Phosphatidylinositol 4-kinase alpha (Homo sapiens, UniProt P42356); test: Inhibition of PI4KA (unknown origin) assessed as reduction in substrate phosphorylation by FRET Adapta assay
Sequence of Phosphatidylinositol 4-kinase alpha (P42356 whole entry, canonical isoform): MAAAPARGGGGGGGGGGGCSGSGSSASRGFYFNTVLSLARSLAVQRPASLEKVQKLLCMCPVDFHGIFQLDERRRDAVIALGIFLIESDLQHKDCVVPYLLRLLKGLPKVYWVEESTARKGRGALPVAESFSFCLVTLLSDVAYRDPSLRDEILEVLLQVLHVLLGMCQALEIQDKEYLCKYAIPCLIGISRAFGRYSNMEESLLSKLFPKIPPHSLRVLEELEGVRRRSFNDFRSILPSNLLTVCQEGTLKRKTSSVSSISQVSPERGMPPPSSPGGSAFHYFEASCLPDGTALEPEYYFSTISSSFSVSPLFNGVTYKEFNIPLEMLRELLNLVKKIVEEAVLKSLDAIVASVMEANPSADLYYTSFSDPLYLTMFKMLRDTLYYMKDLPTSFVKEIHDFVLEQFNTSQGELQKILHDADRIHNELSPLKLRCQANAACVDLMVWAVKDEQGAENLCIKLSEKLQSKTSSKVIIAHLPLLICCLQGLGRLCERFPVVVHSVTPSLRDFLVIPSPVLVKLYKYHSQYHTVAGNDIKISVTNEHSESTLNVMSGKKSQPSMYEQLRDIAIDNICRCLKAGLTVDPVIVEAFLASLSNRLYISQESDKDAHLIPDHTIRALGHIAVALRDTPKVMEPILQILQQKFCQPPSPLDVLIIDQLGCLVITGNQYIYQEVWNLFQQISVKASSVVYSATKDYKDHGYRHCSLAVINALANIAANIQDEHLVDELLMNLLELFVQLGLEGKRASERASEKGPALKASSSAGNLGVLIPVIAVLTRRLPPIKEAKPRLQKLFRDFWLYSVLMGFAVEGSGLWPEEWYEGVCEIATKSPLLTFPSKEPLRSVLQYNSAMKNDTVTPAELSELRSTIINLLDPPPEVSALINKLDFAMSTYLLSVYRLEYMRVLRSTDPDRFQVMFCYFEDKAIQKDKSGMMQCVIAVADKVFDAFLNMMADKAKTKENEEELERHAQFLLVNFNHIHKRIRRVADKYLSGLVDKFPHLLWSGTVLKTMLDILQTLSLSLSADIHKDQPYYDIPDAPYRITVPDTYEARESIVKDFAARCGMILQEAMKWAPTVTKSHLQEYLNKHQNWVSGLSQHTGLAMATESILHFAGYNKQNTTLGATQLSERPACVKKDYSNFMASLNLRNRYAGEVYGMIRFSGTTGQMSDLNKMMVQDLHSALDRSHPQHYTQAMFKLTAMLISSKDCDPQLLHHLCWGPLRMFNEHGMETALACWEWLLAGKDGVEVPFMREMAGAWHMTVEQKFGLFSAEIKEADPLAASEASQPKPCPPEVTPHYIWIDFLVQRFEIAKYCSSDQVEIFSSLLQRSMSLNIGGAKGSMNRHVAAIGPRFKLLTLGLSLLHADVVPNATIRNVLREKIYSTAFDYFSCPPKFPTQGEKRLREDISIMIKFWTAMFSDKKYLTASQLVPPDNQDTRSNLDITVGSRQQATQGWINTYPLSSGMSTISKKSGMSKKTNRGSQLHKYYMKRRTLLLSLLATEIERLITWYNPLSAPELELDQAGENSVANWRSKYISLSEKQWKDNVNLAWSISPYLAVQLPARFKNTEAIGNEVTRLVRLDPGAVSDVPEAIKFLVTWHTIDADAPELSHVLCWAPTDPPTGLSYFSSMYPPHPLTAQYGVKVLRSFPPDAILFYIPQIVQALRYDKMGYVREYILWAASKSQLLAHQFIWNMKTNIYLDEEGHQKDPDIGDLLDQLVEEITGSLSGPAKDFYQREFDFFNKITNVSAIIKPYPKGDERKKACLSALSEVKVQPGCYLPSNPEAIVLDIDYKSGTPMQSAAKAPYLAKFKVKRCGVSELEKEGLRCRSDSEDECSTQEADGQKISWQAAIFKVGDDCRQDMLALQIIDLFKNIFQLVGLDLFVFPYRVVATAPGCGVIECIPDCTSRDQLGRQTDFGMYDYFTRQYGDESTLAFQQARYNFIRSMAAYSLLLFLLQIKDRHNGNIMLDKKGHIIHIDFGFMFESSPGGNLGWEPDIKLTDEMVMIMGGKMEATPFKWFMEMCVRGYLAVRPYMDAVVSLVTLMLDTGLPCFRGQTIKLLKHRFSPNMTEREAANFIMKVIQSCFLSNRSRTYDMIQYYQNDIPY

[13] = target: Phosphatidylinositol 4,5-bisphosphate 3-kinase catalytic subunit gamma isoform (Mus musculus, UniProt Q9JHG7); test: Inhibition of PI3Kgamma in C5a-stimulated mouse RAW 264 cells assessed as inhibition of AKT phosphorylation at Ser473 residue Pretreated for 15 mins followed by C5a stimulation measured after 3 mins by HTRF assay; format: cell-based
[14] = Thermodynamic stability assessed as onset melting temperature; format: physicochemical
[15] = Apparent terminal half life in rat administered via inhalation; format: ADME; settings: in vivo, inhaled or intranasal
[16] = target: Phosphatidylinositol 4-phosphate 3-kinase C2 domain-containing subunit alpha (Homo sapiens, UniProt O00443); test: Inhibition of PIK3C2A (unknown origin) assessed as reduction in substrate phosphorylation by FRET Adapta assay
[17] = target: Phosphatidylinositol 4,5-bisphosphate 3-kinase catalytic subunit gamma isoform (Homo sapiens, UniProt P48736); test: Inhibition of recombinant human PI3Kgamma assessed as reduction in ADP production using Dic8-PIP2 as substrate pre-treated for 15 mins followed by substrate addition measured after 60 mins by ADP-glo assay
Sequence of Phosphatidylinositol 4,5-bisphosphate 3-kinase catalytic subunit gamma isoform (Homo sapiens, UniProt P48736) (P48736 whole entry, canonical isoform): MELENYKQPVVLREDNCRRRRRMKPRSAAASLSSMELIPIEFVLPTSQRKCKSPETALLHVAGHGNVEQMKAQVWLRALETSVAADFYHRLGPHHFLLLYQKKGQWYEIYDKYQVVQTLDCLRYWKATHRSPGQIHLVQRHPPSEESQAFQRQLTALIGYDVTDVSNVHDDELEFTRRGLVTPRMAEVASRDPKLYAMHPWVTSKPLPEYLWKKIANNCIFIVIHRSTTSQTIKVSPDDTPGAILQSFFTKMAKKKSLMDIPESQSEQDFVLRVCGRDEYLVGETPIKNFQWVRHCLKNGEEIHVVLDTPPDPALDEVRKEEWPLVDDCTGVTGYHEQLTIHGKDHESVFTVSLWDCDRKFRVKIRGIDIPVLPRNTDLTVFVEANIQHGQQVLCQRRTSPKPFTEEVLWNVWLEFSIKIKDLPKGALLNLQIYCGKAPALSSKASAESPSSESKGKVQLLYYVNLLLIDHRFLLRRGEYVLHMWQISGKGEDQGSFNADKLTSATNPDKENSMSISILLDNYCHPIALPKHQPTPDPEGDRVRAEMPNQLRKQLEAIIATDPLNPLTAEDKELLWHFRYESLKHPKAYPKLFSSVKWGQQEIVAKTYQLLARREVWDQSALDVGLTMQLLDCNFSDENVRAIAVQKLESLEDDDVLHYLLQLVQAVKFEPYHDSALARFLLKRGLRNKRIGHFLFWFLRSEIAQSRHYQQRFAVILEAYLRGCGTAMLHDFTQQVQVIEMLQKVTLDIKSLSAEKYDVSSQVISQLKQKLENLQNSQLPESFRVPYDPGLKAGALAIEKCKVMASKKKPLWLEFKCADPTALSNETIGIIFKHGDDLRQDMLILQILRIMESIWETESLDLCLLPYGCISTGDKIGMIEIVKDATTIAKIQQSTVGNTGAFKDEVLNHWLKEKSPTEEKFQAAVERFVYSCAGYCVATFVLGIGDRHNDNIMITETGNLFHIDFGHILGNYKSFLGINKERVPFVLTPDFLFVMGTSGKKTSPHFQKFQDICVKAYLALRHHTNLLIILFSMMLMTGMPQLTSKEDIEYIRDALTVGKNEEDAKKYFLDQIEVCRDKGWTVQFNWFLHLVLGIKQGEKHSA

[18] = target: T1, Phosphatidylinositol 4,5-bisphosphate 3-kinase catalytic subunit delta isoform; test: Inhibition of recombinant human PI3Kdelta assessed as reduction in ADP production using Dic8-PIP2 as substrate pre-treated for 15 mins followed by substrate addition measured after 60 mins by ADP-glo assay
[19] = Dissociation constant, pKa of compound; format: physicochemical

Row | permeability [1] | Vd [2] | half-life [3] | clearance [4] | solubility thermodynamic at 24 h [5] | IC50 [6] | logD [7] | IC50 [8] | IC50 [9] | IC50 [10] | IC50 [11] | IC50 [12] | IC50 [13] | Tm [14] | half-life [15] | IC50 [16] | IC50 [17] | IC50 [18] | pKa [19] | Structure (SMILES)
1 | Permeable | 8.6 L/kg | 1.8 h | 110 mL/min/kg | 0.084 µM (≈ 0.0489 µg/mL) | 2 nM | 3.7 | 39.8 nM | 20 nM | 25.1 nM | 0.794 nM | > 10000 nM | 0.794 nM | 377 °C | 6.9 h | 316 nM | 2.51 nM | 0.631 nM |  | Cc1nc2sc1-c1cc3c(c(c1)S(=O)(=O)NCCOCCNC(=O)c1cccc(n1)N2)C(=O)N([C@@H](C)C1CC1)C3
2 | Impermeable | 7.3 L/kg | 1.8 h | 83 mL/min/kg | 1.09 µM (≈ 0.649 µg/mL) | 3.16 nM | 3.9 | 39.8 nM |  |  |  |  | 1.58 nM | 349 °C | 7.5 h |  | 1.58 nM | 0.501 nM | 6.4 | Cc1nc2sc1-c1cc3c(c(c1)S(=O)(=O)NCCN(C)CCNC(=O)c1cccc(n1)N2)C(=O)N([C@@H](C)C1CC1)C3
3 | Impermeable | 5.4 L/kg | 0.7 h | 136 mL/min/kg | 0.337 µM (≈ 0.211 µg/mL) |  | 3.5 | 100 nM | 501 nM | 31.6 nM |  | > 10000 nM |  | 187 °C | 4.2 h | 3160 nM |  |  |  | Cc1nc(Nc2cccc(N3CCOCC3=O)n2)sc1-c1cc2c(c(S(=O)(=O)NC3COC3)c1)C(=O)N([C@@H](C)C1CC1)C2
